Reference: patent US9156811B2 (priority 2008, dated 2015)
Where two headings read alike, the source gives them in different places.

Assays:
[1] = target: T. brucei N-myristoyl transferase (Trypanosoma brucei brucei (strain 927/4 GUTat10.1), UniProt Q388H8); test: biochemical; format: biochemical
[2] = test system: Trypanosome (T. brucei brucei); test: In-vitro antitrypanosomal efficacy assay (cell growth, resazurin); format: cell-based
Description: To column 12, 200 μl media was added to provide a no cells control. Plates were then incubated at 37° C. in an atmosphere of 5% CO2 for 69 hours, before the addition of 20 μl of 500 μM rezasurin solution, and a further incubation period of 4 hours. […] Concentration effect curves were fitted using non-linear regression using XLFit 4.2 and EC50 values determined.

human NMT-1 = human NMT-1 (Homo sapiens (Human), UniProt P30419); test: NMT enzyme inhibition scintillation proximity assay, human NMT-1; format: biochemical; details: HuNMT-1
[3] = value with no enzyme tag in the cell, taken as T. brucei NMT, read-out: IC50 (μM) NMT Enzyme
[4] = T. brucei NMT, value without parentheses, read-out: IC50 (μM) NMT Enzyme (T. brucei NMT)
[5] = T. brucei brucei, blood stream form, variant 221

human NMT-1, sequence (P30419 whole entry): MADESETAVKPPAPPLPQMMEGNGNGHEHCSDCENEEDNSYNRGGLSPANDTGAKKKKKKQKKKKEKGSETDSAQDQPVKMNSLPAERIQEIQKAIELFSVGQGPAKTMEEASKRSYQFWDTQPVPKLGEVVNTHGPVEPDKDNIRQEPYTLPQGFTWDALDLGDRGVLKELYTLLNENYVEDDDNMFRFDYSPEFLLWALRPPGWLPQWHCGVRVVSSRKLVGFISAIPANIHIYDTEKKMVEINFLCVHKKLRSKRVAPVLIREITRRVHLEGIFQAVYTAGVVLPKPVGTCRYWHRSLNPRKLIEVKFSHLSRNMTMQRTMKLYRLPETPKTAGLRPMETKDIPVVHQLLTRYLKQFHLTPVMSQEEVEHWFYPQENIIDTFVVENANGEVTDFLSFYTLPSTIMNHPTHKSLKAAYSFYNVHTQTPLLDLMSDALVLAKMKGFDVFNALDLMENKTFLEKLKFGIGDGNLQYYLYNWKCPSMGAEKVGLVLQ
T. brucei N-myristoyl transferase, sequence (Q388H8 1-446): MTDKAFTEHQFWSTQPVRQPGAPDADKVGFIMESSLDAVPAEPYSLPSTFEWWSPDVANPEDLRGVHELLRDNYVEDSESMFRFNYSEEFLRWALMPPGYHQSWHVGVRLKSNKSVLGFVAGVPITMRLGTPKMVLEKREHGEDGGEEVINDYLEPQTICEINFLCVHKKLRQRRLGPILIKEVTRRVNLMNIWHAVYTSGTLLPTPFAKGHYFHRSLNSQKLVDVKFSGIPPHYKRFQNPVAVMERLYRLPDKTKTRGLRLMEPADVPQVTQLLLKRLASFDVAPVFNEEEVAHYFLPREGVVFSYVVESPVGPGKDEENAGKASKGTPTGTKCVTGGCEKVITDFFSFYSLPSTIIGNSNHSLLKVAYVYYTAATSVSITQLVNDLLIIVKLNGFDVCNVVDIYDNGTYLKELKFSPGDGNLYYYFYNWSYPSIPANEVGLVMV

| SMILES | IC50 [1, 3] [µM] | ED50 (μM) T. brucei ([2]; T. brucei cell growth) [µM] | IC50 ([1]; read-out: IC50 (μM) NMT Enzyme) [µM] | IC50 (human NMT-1) [µM] | IC50 [1, 4] [µM] | ED50 (μM) T. brucei [2, 5] [µM] |
| --- | --- | --- | --- | --- | --- | --- |
| Cc1nn(C)c(C)c1NS(=O)(=O)c1c(Cl)cc(-c2ccnc(NCCCn3ccnc3)c2)cc1Cl [DDD86308, 2,6-Dichloro-4-[2-(3-imidazol-1-yl-propylamino)-pyridin-4-yl]-N-(1,3,5-trimethyl-1H-pyrazol-4-yl)-benzenesulfonamide] | 1 | >1 | – | – | – | – |
| Cc1nn(C)c(C)c1N[S+](=O)([O-])c1ccc(NCCN2CCN(C(=O)OC(C)(C)C)CC2)nc1 [DDD86310] | 1 | >1 | – | – | – | – |
| CC(=O)c1cccc(Nc2ccc([S+](=O)([O-])Nc3c(C)nn(C)c3C)cn2)c1 [DDD86311] | 1 | >1 | – | – | – | – |
| Cc1nn(C)c(C)c1N[S+](=O)([O-])c1c(Cl)cc(C#CCN2CCCCC2)cc1Cl [DDD86476] | 5.9 | >1 | – | – | – | – |
| Cc1nn(C)c(C)c1N(CCCO)[S+](=O)([O-])c1ccc(-c2ccnc(N3CCNCC3)c2)cc1 [DDD87755, N-(3-Hydroxy-propyl)-4-(2-piperazin-1-yl-pyridin-4-yl)-N-(1,3,5-trimethyl-1H-pyrazol-4-yl)-benzenesulfonamide] | 0.05 | 0.98 | – | – | – | – |
| Cc1nn(C)c(C)c1NS(=O)(=O)c1ccc(-c2ccnc(N3CCNC(c4ccccc4)C3)c2)cc1 (stereo not shown) [DDD87756, 4-[2-(3-Phenyl-piperazin-1-yl)-pyridin-4-yl]-N-(1,3,5-trimethyl-1H-pyrazol-4-yl)-benzenesulfonamide] | – | >1 | 0.76 | – | – | – |
| Cc1nn(C)c(C)c1N[S+](=O)([O-])c1ccc(N2CCC(N3CCN(Cc4ccccc4)CC3)C2)nc1 (stereo not shown) [DDD87760] | 34.4 | >1 | – | – | – | – |
| Cc1nn(C)c(C)c1NS(=O)(=O)c1c(Cl)cc(-c2cccc3c2CCNC3)cc1Cl [DDD87762] | 2.6 | >1 | – | – | – | – |
| Cc1nn(C)c(C)c1N[S+](=O)([O-])c1ccc(N2CCC(N3CCNCC3)C2)nc1 (stereo not shown) [DDD88008] | 0.11 | 18.0 | – | – | – | – |
| Cc1noc(C)c1N[S+](=O)([O-])c1ccc(CCCN2CCN(C)CC2)cc1 [DDD88190] | 1.1 | 31.0 | – | – | – | – |
| Cc1c(N[S+](=O)([O-])c2c(Cl)cc(Br)cc2Cl)cnn1C [DDD88315] | 20 | >10 | – | – | – | – |
| Cc1cc(Br)ccc1[S+](=O)([O-])Nc1c(C)nn(C)c1C [DDD88316] | 12.7 | >10 | – | – | – | – |
| Cc1nn(C)c(C)c1N[S+](=O)([O-])c1ccc(Br)cc1F [DDD88318] | 10 | >10 | – | – | – | – |
| Cc1ccnc(C)c1N[S+](=O)([O-])c1c(Cl)cc(-c2ccnc(N3CCNCC3)c2)cc1Cl [DDD88319] | 0.045 | 0.69 | – | – | – | – |
| Cc1nn(C)cc1N[S+](=O)([O-])c1ccc(Br)cc1 [DDD88320] | 44.1 | >10 | – | > 100 | – | – |
| Cn1cc(N[S+](=O)([O-])c2ccc(Br)cc2)cn1 [DDD88321] | > 100 | >10 | – | > 100 | – | – |
| Cc1ccncc1N[S+](=O)([O-])c1c(Cl)cc(-c2ccnc(N3CCNCC3)c2)cc1Cl [DDD88322] | 0.182 | 1.93 | – | 1.5 | – | – |
| Cc1nn(C)c(C)c1N[S+](=O)([O-])c1c(F)cc(-c2ccnc(N3CCNCC3)c2)cc1F [DDD88323] | 0.004 | 0.005 | – | – | – | – |
| Cc1nn(C)cc1N[S+](=O)([O-])c1c(Cl)cc(Br)cc1Cl [DDD88324] | 75.4 | >10 | – | 3.36 | – | – |
| Cn1cc(N[S+](=O)([O-])c2c(Cl)cc(Br)cc2Cl)cn1 [DDD88325] | > 100 | >10 | – | > 100 | – | – |
| Cc1c(N[S+](=O)([O-])c2ccc(Br)cc2)cnn1C [DDD88326] | > 100 | >10 | – | > 100 | – | – |
| Cc1nn(C)c(C)c1N[S+](=O)([O-])c1ccc2nc(NC3CCNCC3)ccc2c1 [DDD88523] | 0.61 | >1 | – | 6.3 | – | – |
| Cc1nn(C)c(C)c1N[S+](=O)([O-])c1ccc(-c2cccc(CN)c2)cc1 [DDD88560] | 0.054 | 2.15 | – | – | – | – |
| CCCN(CCC)Cc1cccc(-c2cc(Cl)c([S+](=O)([O-])N(C)c3c(C)nn(C)c3C)c(Cl)c2)c1 [DDD88636] | 0.92 | 1.89 | – | 3.7 | – | – |
| Cc1nn(C)c(C)c1N[S+](=O)([O-])c1cccc(CCCN2CCN(C)CC2)c1 [DDD88640] | > 1 | 18.7 | – | > 1 | – | – |
| Cc1nn(C)c(C)c1N(C)[S+](=O)([O-])c1c(Cl)cc(-c2cccc(CNC3CCCCC3)c2)cc1Cl [DDD88642] | 0.39 | 0.89 | – | 4.48 | – | – |
| Cc1nn(C)c(C)c1N[S+](=O)([O-])c1ccc(CCCN2CCN(C)CC2)cc1Cl [DDD90058] | 0.027 | 0.20 | – | – | – | – |

| SMILES | IC50 [1, 3] [µM] | ED50 (μM) T. brucei ([2]; T. brucei cell growth) [µM] | IC50 ([1]; read-out: IC50 (μM) NMT Enzyme) [µM] | IC50 (human NMT-1) [µM] | IC50 [1, 4] [µM] | ED50 (μM) T. brucei [2, 5] [µM] |
| --- | --- | --- | --- | --- | --- | --- |
| Cc1nn(C)c(C)c1N[S+](=O)([O-])c1cc(F)c(CCCN2CCN(C)CC2)cc1F [DDD90059] | 0.054 | 0.48 | – | – | – | – |
| Cc1c(N[S+](=O)([O-])c2c(Cl)cc(CCCN3CCN(C)CC3)cc2Cl)c(CC(C)C)nn1C [DDD90060] | 0.006 | 0.02 | – | – | – | – |
| Cc1nn(C)c(C)c1N[S+](=O)([O-])c1ccc(-c2cccc(CCN(C)C)c2)cc1 [DDD90106] | 0.024 | 0.251 | – | – | – | – |
| Cc1nn(C)c(C)c1N[S+](=O)([O-])c1ccc(-c2cccc(CC3CCN(C)CC3)c2)cc1 [DDD90107] | 0.004 | 0.040 | – | – | – | – |
| Cc1nn(C)c(C)c1N(C)[S+](=O)([O-])c1ccc(CCCN2CCN(C)CC2)cc1 [DDD90115] | 0.26 | 2.21 | – | 6.1 | – | – |
| Cc1c(N(C)[S+](=O)([O-])c2ccc(CCCN3CCN(C)CC3)cc2)c(CC(C)C)nn1C [DDD90143] | 0.082 | 0.81 | – | 1.37 | – | – |
| Cc1c(N[S+](=O)([O-])c2ccc(CCCN3CCN(C)CC3)cc2)c(CC(C)C)nn1C [DDD90147] | 0.034 | 0.20 | – | – | – | – |
| Cc1nn(C)c(C)c1N(C)[S+](=O)([O-])c1ccc(CCCC2CCN(Cc3ccccc3)CC2)cc1 [DDD90152] | 0.5 | >1 | – | > 1 | – | – |
| Cc1nn(C)c(C)c1N(C)[S+](=O)([O-])c1ccc(CCCC2CCN(C(C)C)CC2)cc1 [DDD90153] | 0.31 | >1 | – | > 1 | – | – |
| Cc1nn(C)c(C)c1N(C)[S+](=O)([O-])c1ccc(CCCC2CCN(CC3CC3)CC2)cc1 [DDD90155] | > 1 | 4.0 | – | > 1 | – | – |
| Cc1nn(C)c(C)c1N(C)[S+](=O)([O-])c1ccc(CCCCCn2ccnc2)cc1 [DDD99735] | 0.83 | >1 | – | 2.9 | – | – |
| Cc1c(N[S+](=O)([O-])c2ccc(-c3cccc(CN4CCN(C)CC4)c3)cc2)c(CC(C)C)nn1C [DDD99736] | 0.068 | 0.41 | – | – | – | – |
| Cc1c(N[S+](=O)([O-])c2c(Cl)cc(CCCC3CCN(C)CC3)cc2Cl)c(CC(C)C)nn1C [DDD99743] | 0.003 | 0.005 | – | – | – | – |
| CCN(CC)Cc1cccc(-c2cc(Cl)c([S+](=O)([O-])Nc3c(CC(C)C)nn(C)c3C)c(Cl)c2)c1 [DDD99747] | 0.008 | 0.067 | – | – | – | – |
| CCN(CC)Cc1cccc(-c2ccc([S+](=O)([O-])Nc3c(CC(C)C)nn(C)c3C)c(Cl)c2)c1 [DDD99763] | 0.007 | 0.053 | – | – | – | – |
| Cc1cc(CN(C)C)cc(-c2ccc([S+](=O)([O-])Nc3c(CC(C)C)nn(C)c3C)cc2)c1 [DDD99817] | 0.014 | 0.047 | – | – | – | – |
| Cc1cc([S+](=O)([O-])Nc2c(CC(C)C)nn(C)c2C)ccc1-c1cccc(CN(C)C)c1 [DDD99819] | 0.008 | 0.043 | – | – | – | – |
| Cc1c(N[S+](=O)([O-])c2ccc(-c3cccc(CN(C)C)c3)c(C(F)(F)F)c2)c(CC(C)C)nn1C [DDD99822] | 0.006 | 0.051 | – | – | – | – |
| Cc1c(N[S+](=O)([O-])c2ccc(-c3cccc(CN(C)C)c3)c(Cl)c2)c(CC(C)C)nn1C [DDD99823] | – | – | – | – | 0.006 | 0.041 |
| Cc1c(N[S+](=O)([O-])c2ccc(-c3cc(CN(C)C)ccc3F)cc2)c(CC(C)C)nn1C [DDD99827] | – | – | – | – | 0.007 | 0.019 |
| Cc1c(N[S+](=O)([O-])c2ccc(-c3cccc(CC4CCNCC4)c3)cc2)c(CC(C)C)nn1C [DDD100094] | – | – | – | – | 0.003 | 0.008 |
| CCNCc1cccc(-c2ccc([S+](=O)([O-])Nc3c(CC(C)C)nn(C)c3C)cc2)c1 [DDD100095] | – | – | – | – | 0.005 | 0.055 |
| Cc1c(N[S+](=O)([O-])c2ccc(CCCCC3CCNCC3)cc2)c(CC(C)C)nn1C [DDD100158] | – | – | – | – | 0.006 | 0.048 |
| Cc1c(N[S+](=O)([O-])c2ccc(CCCCC3CCN(C)CC3)cc2)c(CC(C)C)nn1C [DDD100162] | – | – | – | – | 0.01 | 0.093 |
| Cc1c(N[S+](=O)([O-])c2ccc(CCCOC3CCN(C)CC3)cc2)c(CC(C)C)nn1C [DDD100168] | – | – | – | – | 0.009 | 0.110 |
| COCCNCc1cccc(-c2ccc([S+](=O)([O-])Nc3c(CC(C)C)nn(C)c3C)cc2)c1 [DDD100797] | – | – | – | – | 0.023 | 0.492 |
| CCCNCc1cccc(-c2ccc([S+](=O)([O-])Nc3c(CC(C)C)nn(C)c3C)cc2)c1 [DDD100800] | – | – | – | – | 0.006 | 0.052 |
